Experimental data: patent EP4603105A1, “PHARMACEUTICAL COMPOSITION CONTAINING CYCLIC COMPOUND HAVING SELECTIVE KRAS INHIBITORY EFFECT AGAINST HRAS AND NRAS” (CHUGAI SEIYAKU KABUSHIKI KAISHA, priority 2022, dated 2024)
Where a SMILES comes first, the peptide text is derived from it. Bridges are numbered along the chain shown (N, C = ends). [ ]: non-standard residue; d: D form. The star is where a group is joined. hPhe(3-Cl-4-CF3) = N[C@@H](CCc1ccc(C(F)(F)F)c(Cl)c1)C(=O)O; NPrPhe(4-CF3) = CCCN[C@@H](Cc1ccc(C(F)(F)F)cc1)C(=O)O; NEtPhe(4-CF3) = CCN[C@@H](Cc1ccc(C(F)(F)F)cc1)C(=O)O; hPhe(3,4-Cl2) = N[C@@H](CCc1ccc(Cl)c(Cl)c1)C(=O)O; Pip(4,4-F2) = O=C(O)[C@@H]1CC(F)(F)CCN1; NMeGly(cPent) = CN[C@H](C(=O)O)C1CCCC1; NMeD = CN[C@@H](CC(=O)O)C(=O)O; NMeL = CN[C@@H](CC(C)C)C(=O)O; Ac6c = NC1(C(=O)O)CCCCC1; Morpholide = C1CN(*)CCO1; NMeA = CN[C@@H](C)C(=O)O; Ac5c = NC1(C(=O)O)CCCC1; Aze = O=C(O)[C@@H]1CCN1; Sar = CNCC(=O)O

How the values were obtained:
[1] = molecular target: GDP-bound NRAS wild-type protein (Homo sapiens, UniProt P01111); test: Binding to NRAS by surface plasmon resonance (SPR), KD and KD ratio to KRAS
Outline: (§1)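 Each cycle, GDP-bound biotin-Avi RAS was captured (~100–300 RU), compound concentrations were injected low to high for 75 s each at 100 µL/min, then the chip was regenerated. Buffer: HBS pH 7.4, 10 mM MgCl2, 10 µM GDP, 1 mM DTT, 4% DMSO; 30°C. KD from a 1:1 binding model.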

HRAS wild-type protein = HRAS wild-type protein (Homo sapiens, UniProt P01112); test: Binding to HRAS by surface plasmon resonance (SPR), KD and KD ratio to KRAS
Outline: as §1

[2] = system: human lung cancer strain NCI-H441; assay type: cell-based
Outline: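 Signal came from […] measured per well once the reagent was added. Beforehand, cells were cultured at 37°C and 5% carbon dioxide on a compound series serially diluted in dimethyl sulfoxide.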

[3] = ratio of KD for GDP-bound NRAS wild-type protein to KD for KRAS
[4] = ratio of KD for HRAS wild-type protein to KD for KRAS
[5] = ratio of the KD value with respect to GDP-bound NRAS wild-type protein to the KD value with respect to KRAS
[6] = ratio of the KD value with respect to HRAS wild-type protein to the KD value with respect to KRAS
[7] = ratio of KD value for GDP-bound NRAS wild-type protein to KD value for KRAS (SPR)
[8] = ratio of KD value for HRAS wild-type protein to KD value for KRAS (SPR)

Sequence of HRAS wild-type protein (P01112 whole entry): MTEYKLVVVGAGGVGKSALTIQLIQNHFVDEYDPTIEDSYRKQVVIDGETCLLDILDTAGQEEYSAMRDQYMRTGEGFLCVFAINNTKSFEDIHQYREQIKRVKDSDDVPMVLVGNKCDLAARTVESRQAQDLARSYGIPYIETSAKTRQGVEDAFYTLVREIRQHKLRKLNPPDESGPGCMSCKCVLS
Sequence of GDP-bound NRAS wild-type protein (P01111 whole entry): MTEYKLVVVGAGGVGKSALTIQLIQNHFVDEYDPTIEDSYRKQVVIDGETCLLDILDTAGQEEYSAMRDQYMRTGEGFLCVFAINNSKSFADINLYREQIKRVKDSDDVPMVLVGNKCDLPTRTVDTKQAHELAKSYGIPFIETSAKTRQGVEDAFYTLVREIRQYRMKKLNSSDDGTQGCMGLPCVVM

| Compound | NRAS /KRAS [1, 3] | HRAS /KRAS (HRAS wild-type protein; [4]) | IC50 [2] | NRAS /KRAS [1, 5] | HRAS /KRAS (HRAS wild-type protein; [6]) | NRAS /KRAS [1, 7] | HRAS /KRAS (HRAS wild-type protein; [8]) |
| --- | --- | --- | --- | --- | --- | --- | --- |
| CCCN1C(=O)[C@@H]2CCN2C(=O)[C@H](C)N(C)C(=O)[C@H]([C@@H](C)CC)NC(=O)[C@H](CC(C)C)N(C)C(=O)C[C@@H](C(=O)N2CCOCC2)N(C)C(=O)[C@H](C2CCCC2)N(C)C(=O)C2(CCCCC2)NC(=O)[C@@H]2CCCN2C(=O)[C@H](CCc2ccc(C(F)(F)F)c(Cl)c2)NC(=O)CN(C)C(=O)[C@@H]1Cc1ccc(C(F)(F)F)cc1 [PP0226] ([NMeL]I[NMeA][Aze][NPrPhe(4-CF3)][Sar][hPhe(3-Cl-4-CF3)]P[Ac6c][NMeGly(cPent)][NMeD]-Morpholide; lactam N-11) | C (A compound having a KD ratio of 0.1 or more and less than 3 is denoted as C) | B (a compound having 3 or more and less than 10 is denoted as B) | 15.3 nM | – | – | – | – |
| CCO[C@@H]1C[C@H]2C(=O)NC3(CCC3)C(=O)N(C)[C@@H](C3CCCC3)C(=O)N(C)[C@H](C(=O)N3CCOCC3)CC(=O)N(C)[C@@H](COC)C(=O)N[C@@H]([C@@H](C)CC)C(=O)NCC(=O)N(C)[C@H]3CCCCCN(C3=O)[C@@H](Cc3ccc(C(F)(F)F)cc3)C(=O)N(C)CC(=O)N[C@@H](CCc3cc(F)c(C(F)(F)F)c(F)c3)C(=O)N2C1 [PP0858] | B (a compound having 3 or more and less than 10 is denoted as B) | B (a compound having 3 or more and less than 10 is denoted as B) | 52.5 nM | – | – | – | – |
| CC[C@H](C)[C@@H]1NC(=O)[C@H](CC(C)C)N(C)C(=O)C[C@@H](C(=O)N2CCOCC2)N(C)C(=O)[C@H](C2CCCC2)N(C)C(=O)C2(CC(F)(F)C2)NC(=O)[C@@H]2CCCN2C(=O)[C@H](CCc2cc(F)c(C(F)(F)F)c(F)c2)NC(=O)CN(C)C(=O)[C@H](Cc2ccc(C(F)(F)F)cc2)N2CCCC[C@@H](C2=O)N(C)C(=O)CN(C)C1=O [PP0562] | – | – | 4.4 nM | B (a compound having 3 or more and less than 10 is denoted as B) | B (a compound having 3 or more and less than 10 is denoted as B) | – | – |
| CC[C@H](C)[C@@H]1NC(=O)[C@H](CC(C)C)N(C)C(=O)C[C@@H](C(=O)N2CCOCC2)N(C)C(=O)[C@H](C2CCCC2)N(C)C(=O)C2(CCC2)NC(=O)[C@@H]2CCCN2C(=O)[C@H](CCc2cc(F)c(C(F)(F)F)c(F)c2)NC(=O)CN(C)C(=O)[C@H](Cc2ccc(C(F)(F)F)cc2)N2CCCCC[C@@H](C2=O)N(C)C(=O)CN(C)C1=O [PP0497] | – | – | 44.2 nM | B (a compound having 3 or more and less than 10 is denoted as B) | B (a compound having 3 or more and less than 10 is denoted as B) | – | – |
| CCCN(C)C(=O)[C@@H]1CC(=O)N(C)[C@@H](CC2CC2)C(=O)N[C@@H]([C@@H](C)CC)C(=O)N(C)CC(=O)N(C)[C@H]2C/C=C\CCN(C2=O)[C@@H](Cc2ccc(C(F)(F)F)cc2)C(=O)N(C)CC(=O)N[C@@H](CCc2cc(F)c(C(F)(F)F)c(F)c2)C(=O)N2C[C@H](F)C[C@H]2C(=O)NC2(CC(C)(C)C2)C(=O)N(C)[C@@H](C2CCCC2)C(=O)N1C [PP1665] | – | – | 3.1 nM | – | – | AA (a compound having 20 or more is denoted as AA) | A (a compound having 10 or more and less than 20 is denoted as A) |
| CCCN(C)C(=O)[C@@H]1CC(=O)N(C)[C@@H](CC)C(=O)N[C@@H]([C@@H](C)CC)C(=O)N(C)CC(=O)N(C)[C@H]2C/C=C\CCN(C2=O)[C@@H](Cc2ccc(C(F)(F)F)cc2)C(=O)N(C)CC(=O)N[C@@H](CCc2cc(F)c(C(F)(F)F)c(F)c2)C(=O)N2CC[C@H]2C(=O)NC2(CCC2)C(=O)N(C)[C@@H](C2CCCC2)C(=O)N1C [PP2915] | A (a compound having 10 or more and less than 20 is denoted as A) | A (a compound having 10 or more and less than 20 is denoted as A) | 129 nM | – | – | – | – |
| CC[C@H](C)[C@@H]1NC(=O)[C@H](C)N(C)C(=O)C[C@@H](C(=O)N(C)C)N(C)C(=O)[C@H](C2CCCC2)N(C)C(=O)C2(CCC2)NC(=O)[C@@H]2CC(F)(F)CN2C(=O)[C@H](CCc2cc(F)c(C(F)(F)F)c(F)c2)NC(=O)CN(C)C(=O)[C@H](Cc2ccc(C(F)(F)F)cc2)N2CCCCC[C@@H](C2=O)N(C)C(=O)CN(C)C1=O [PP0473] | – | – | 14.8 nM | C (A compound having a KD ratio of 0.1 or more and less than 3 is denoted as C) | C (A compound having a KD ratio of 0.1 or more and less than 3 is denoted as C) | – | – |
| CC[C@H](C)[C@@H]1NC(=O)[C@H](CC(C)C)N(C)C(=O)C[C@@H](C(=O)N2CCOCC2)N(C)C(=O)[C@H](C2CCCC2)N(C)C(=O)C2(CCCC2)NC(=O)[C@@H]2CCCN2C(=O)[C@H](CCc2ccc(Cl)c(Cl)c2)NC(=O)CN(C)C(=O)[C@H](Cc2ccc(C(F)(F)F)cc2)N(CC)C(=O)[C@@H]2CCN2C(=O)[C@H](C)N(C)C1=O [PP0223] ([NMeL]I[NMeA][Aze][NEtPhe(4-CF3)][Sar][hPhe(3,4-Cl2)]P[Ac5c][NMeGly(cPent)][NMeD]-Morpholide; lactam N-11) | C (A compound having a KD ratio of 0.1 or more and less than 3 is denoted as C) | C (A compound having a KD ratio of 0.1 or more and less than 3 is denoted as C) | 5 nM | – | – | – | – |
| CC[C@H](C)[C@@H]1NC(=O)[C@H](CC(C)C)N(C)C(=O)C[C@@H](C(=O)N2CCOCC2)N(C)C(=O)[C@H](C2CCC2)N(C)C(=O)C2(CCCC2)NC(=O)[C@@H]2CCCN2C(=O)[C@H](CCc2cc(F)c(C(F)(F)F)c(F)c2)NC(=O)CN(C)C(=O)[C@H](Cc2ccc(C(F)(F)F)cc2)N2CCCC[C@@H](C2=O)N(C)C(=O)CN(C)C1=O [PP0566] | – | – | 18.4 nM | B (a compound having 3 or more and less than 10 is denoted as B) | B (a compound having 3 or more and less than 10 is denoted as B) | – | – |
| CCCN1C(=O)[C@H](C2CCCC2)N(C)C(=O)C2(CCC2)NC(=O)[C@@H]2C[C@@H](OCC)CN2C(=O)[C@H](CCc2cc(F)c(C(F)(F)F)c(F)c2)NC(=O)CN(C)C(=O)[C@H](Cc2ccc(C(F)(F)F)cc2)N2CCCC[C@@H](C2=O)N(C)C(=O)CN(C)C(=O)[C@H]([C@@H](C)CC)NC(=O)[C@H](CC(C)C)N(C)C(=O)C[C@H]1C(=O)N1CCOCC1 [PP0649] | – | – | 30.2 nM | C (A compound having a KD ratio of 0.1 or more and less than 3 is denoted as C) | B (a compound having 3 or more and less than 10 is denoted as B) | – | – |
| CCO[C@@H]1C[C@H]2C(=O)NC3(CC(C)(C)C3)C(=O)N(C)[C@@H](C(CC)CC)C(=O)N(C)C(CC)CC(=O)N(C)[C@@H](CC)C(=O)N[C@@H]([C@@H](C)CC)C(=O)N(C)CC(=O)N(C)[C@H]3C/C=C\CCN(C3=O)[C@@H](Cc3ccc(C(F)(F)F)cc3)C(=O)N(C)CC(=O)N[C@@H](CCc3cc(F)c(C(F)(F)F)c(F)c3)C(=O)N2C1 (stereo partly drawn) [PP1622] | – | – | 28.1 nM | – | – | A (a compound having 10 or more and less than 20 is denoted as A) | A (a compound having 10 or more and less than 20 is denoted as A) |
| CCCN1C(=O)CN(C)C(=O)CN(C)C(=O)[C@H]([C@@H](C)CC)NC(=O)[C@H](CC(C)C)N(C)C(=O)C[C@@H](C(=O)N2CCOCC2)N(C)C(=O)[C@H](C2CCCC2)N(C)C(=O)C2(CCCC2)NC(=O)[C@@H]2CC(F)(F)CCN2C(=O)[C@H](CCc2ccc(C(F)(F)F)c(Cl)c2)NC(=O)CN(C)C(=O)[C@@H]1Cc1ccc(C(F)(F)F)cc1 [PP0264] ([NMeL]I[Sar][Sar][NPrPhe(4-CF3)][Sar][hPhe(3-Cl-4-CF3)][Pip(4,4-F2)][Ac5c][NMeGly(cPent)][NMeD]-Morpholide; lactam N-11) | B (a compound having 3 or more and less than 10 is denoted as B) | C (A compound having a KD ratio of 0.1 or more and less than 3 is denoted as C) | 16.4 nM | – | – | – | – |
| CC[C@H](C)[C@@H]1NC(=O)[C@H](CC(C)C)N(C)C(=O)C[C@@H](C(=O)N2CCOCC2)N(C)C(=O)[C@H](C2CCCC2)N(C)C(=O)C2(CCCC2)NC(=O)[C@@H]2CCCN2C(=O)[C@H](CCc2ccc(C(F)(F)F)c(Cl)c2)NC(=O)CN(C)C(=O)[C@H](Cc2ccc(C)cc2)N2CCCC[C@@H](C2=O)N(C)C(=O)CN(C)C1=O [PP0316] | C (A compound having a KD ratio of 0.1 or more and less than 3 is denoted as C) | B (a compound having 3 or more and less than 10 is denoted as B) | 2.8 nM | – | – | – | – |
| CCC[C@H]1C(=O)N[C@@H]([C@@H](C)CC)C(=O)N(C)CC(=O)N(C)[C@H]2C/C=C\CCN(C2=O)[C@@H](Cc2ccc(C(F)(F)F)cc2)C(=O)N(C)CC(=O)N[C@@H](CCc2cc(Cl)c3c(ccn3C)c2)C(=O)N2C[C@H](OCC)C[C@H]2C(=O)NC2(CC(C)(C)C2)C(=O)N(C)[C@@H](C2CCCC2)C(=O)N(C)[C@H](C(=O)N(C)C)CC(=O)N1C [PP2950] | A (a compound having 10 or more and less than 20 is denoted as A) | A (a compound having 10 or more and less than 20 is denoted as A) | 24.2 nM | – | – | – | – |
